In patent publication US8293769B2, “CSF-1R inhibitors, compositions, and methods of use” (Novartis AG, priority 2008, dated 2012):

What was measured:
cKIT = target: T1, cKIT (Homo sapiens, UniProt P10721); test: cKIT kinase in vitro biochemical assay (alphascreen); settings: tested at about 1 μM; read-out: CKIT percent inhibition
T1 construct: The kinase domain of cKIT was assayed in 50 mM Hepes; purchased Upstate 14-559
Experimental: (§1) The IC50 values for the inhibition of RTKs were determined in the alphascreen format measuring the inhibition by compound of phosphate transfer to a substrate by the respective enzyme. Briefly, the respective RTK domain purchased as human recombinant protein (cKIT Upstate #14-559, PDGFRb Invitrogen #P3082) were incubated with serial dilutions of compound in the presence of substrate and ATP concentrations within 3 times the Km of the enzyme.
(§2) The kinase domain of cKIT was assayed in 50 mM Hepes, pH=7.5, 5 mM MgCl2, 10 mM MnCl2, 1 mM DTT, 0.1% BSA with 0.06 uM biotinylated peptide substrate (GGLFDDPSYVNVQNL-NH2) and 15 uM ATP (ATP KM apparent=15 uM). The kinase domain of PDGFRβ was assayed in 50 mM Hepes, pH=7.5, 20 mM MgCl2, 1 mM DTT, 0.1% BSA with 0.1 uM biotinylated peptide substrate (GGLFDDPSYVNVQNL-NH2) and 10 uM ATP (ATP KM apparent=25 uM). Reactions were incubated at room temperature for 3 to 4 hr and stopped with buffer (20 mM EDTA, 0.01% Tween-20 for both PDGFRb and cKIT). Alphascreen PY20 beads were added to the stopped cKIT reactions and PY20 Ab/Protein A Alphascreen beads were added to the PDGFRβ stopped reactions. Both reactions were incubated overnight and read on the Alphascreen reader. The concentration of compound for 50% inhibition (IC50) was calculated employing non-linear regression using XL-Fit data analysis software. As a control compound, staurosporine is run in every assay and a Z′>0.5 is required to validate results.

[1] = target: T2, cytoplasmic domain of the human CSF-1R (Homo sapiens, UniProt P07333); test: In vitro kinase assay for CSF-1R (AlphaScreen); assay type: biochemical; settings: tested at about 1 μM; read-out: CSF1RK 1 percent inhibition
T2 construct: Recombinant protein corresponding to the cytoplasmic domain of the human CSF-1R; purchased Invitrogen Corporation, Carlsbad, Calif; PV3249
T2 sequence (P07333 539-972 limits assumed): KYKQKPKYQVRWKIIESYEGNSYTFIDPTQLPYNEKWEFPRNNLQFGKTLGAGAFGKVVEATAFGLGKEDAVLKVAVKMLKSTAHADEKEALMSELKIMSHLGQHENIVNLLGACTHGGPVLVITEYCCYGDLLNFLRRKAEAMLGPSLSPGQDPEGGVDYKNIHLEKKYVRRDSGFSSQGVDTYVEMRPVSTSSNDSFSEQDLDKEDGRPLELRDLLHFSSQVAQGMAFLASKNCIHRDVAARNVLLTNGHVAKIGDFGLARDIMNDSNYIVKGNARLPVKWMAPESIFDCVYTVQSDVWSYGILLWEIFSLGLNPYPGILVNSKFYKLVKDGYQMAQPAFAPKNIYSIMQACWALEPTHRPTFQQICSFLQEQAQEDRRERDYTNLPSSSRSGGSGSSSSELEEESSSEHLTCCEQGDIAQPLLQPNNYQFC
Experimental: The kinase activity of various protein tyrosine kinases can be measured by providing ATP and a suitable peptide or protein tyrosine-containing substrate, and assaying the transfer of phosphate moiety to the tyrosine residue. Recombinant protein corresponding to the cytoplasmic domain of the human CSF-1R was purchased from Invitrogen Corporation, Carlsbad, Calif. U.S.A. (#PV3249). For each assay, test compounds were serially diluted, starting at 25 μM with 3 fold dilutions, in DMSO in 384 well plates then mixed with an appropriate kinase reaction buffer consisting of 50 mM Hepes, 5 mM MgCl2, 10 mM MnCl2, 0.1% BSA, pH 7.5, 1.0 mM dithiothreitol, 0.01% Tween 80 plus 1 μM ATP. Kinase protein and an appropriate biotinylated peptide substrate at 50 nM were added to give a final volume of 20 μL, reactions were incubated for 2 hours at room temperature and stopped by the addition of 10 μL of 45 mM EDTA, 50 mM Hepes pH 7.5. Added to the stopped reaction mix was 30 μL of PT66 Alphascreen beads (Perkin Elmer, Boston, Mass., U.S.A.). The reaction was incubated overnight and read on the Envision (Perkin Elmer). Phosphorylated peptide product was measured with the AlphaScreen system (Perkin Elmer) using acceptor beads coated with anti-phosphotyrosine antibody PT66 and donor beads coated with streptavidin that emit a fluorescent signal at the 520-620 nm emission wave length if in close proximity. The concentration of each compound for 50% inhibition (IC50) was calculated by non-linear regression using XL Fit data analysis software.
CSF-1R kinase was assayed in 50 mM Hepes pH 7.0, 5 mM MgCl2, 10 mM MnCl2, 1 mM DTT, 1 mg/mL BSA, 1.0 μM ATP, and 0.05 μM biotin-GGGGRPRAATF-NH2 (SEQ ID NO:1) peptide substrate. CSF-1R kinase was added at final concentration of 4 nM.

PDGFRb = target: T3, PDGFRb (Homo sapiens, UniProt P09619); test: PDGFRb kinase in vitro biochemical assay (alphascreen); settings: tested at about 1 μM; read-out: PDGF RK BETA percent inhibition
T3 construct: The kinase domain of PDGFRβ was assayed in 50 mM Hepes; purchased Invitrogen P3082
T3 sequence (P09619 600-962 limits assumed): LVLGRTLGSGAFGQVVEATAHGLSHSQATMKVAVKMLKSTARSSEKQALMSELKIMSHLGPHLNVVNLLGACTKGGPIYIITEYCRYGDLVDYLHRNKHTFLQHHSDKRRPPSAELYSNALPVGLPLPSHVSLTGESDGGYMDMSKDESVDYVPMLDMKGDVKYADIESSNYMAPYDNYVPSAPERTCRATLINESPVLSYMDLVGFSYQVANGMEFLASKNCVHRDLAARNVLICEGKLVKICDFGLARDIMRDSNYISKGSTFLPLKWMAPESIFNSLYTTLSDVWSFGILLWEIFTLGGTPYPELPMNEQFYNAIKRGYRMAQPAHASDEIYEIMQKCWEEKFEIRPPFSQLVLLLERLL
Experimental: as §1, §2

T1 sequence (P10721 589-937 limits assumed): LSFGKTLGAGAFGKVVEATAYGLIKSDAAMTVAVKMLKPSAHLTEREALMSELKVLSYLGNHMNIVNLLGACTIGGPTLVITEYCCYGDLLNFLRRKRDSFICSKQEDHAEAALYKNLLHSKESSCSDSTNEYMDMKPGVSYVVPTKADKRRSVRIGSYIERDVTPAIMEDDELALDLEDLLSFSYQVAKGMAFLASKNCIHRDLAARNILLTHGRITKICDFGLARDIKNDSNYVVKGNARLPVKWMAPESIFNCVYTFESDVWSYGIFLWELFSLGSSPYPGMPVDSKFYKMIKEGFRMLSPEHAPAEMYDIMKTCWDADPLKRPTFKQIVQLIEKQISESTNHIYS

O[C@@H]1CCCC[C@H]1Nc1nc2ccc(Oc3cncc(-c4cn[nH]c4)c3)cc2s1 [Compound 55, (1R,2R)-2-(6-(5-(1H-pyrazol-4-yl)pyridin-3-yloxy)benzo [d]thiazo-2-ylamino)cyclohexanol]
inhibition at 1 µM (cKIT): 84% | inhibition at 1 µM [1]: 100% | inhibition at 1 µM (PDGFRb): 19%

CCCn1cc(-c2cncc(Oc3ccc4nc(N[C@@H]5CCCC[C@H]5O)sc4c3)c2)cn1 [Compound 58, (1R,2R)-2-(6-(5-(1-propyl-1H-pyrazol-4-yl)pyridin-3-yloxy)benzo[d]thiazol-2-ylamino)cyclohexanol]
inhibition at 1 µM (cKIT): 86% | inhibition at 1 µM [1]: 100% | inhibition at 1 µM (PDGFRb): 7%

O[C@@H]1CCCC[C@H]1Nc1nc2ccc(Oc3cncc(-c4cnn(CCN5CCOCC5)c4)c3)cc2s1 [Compound 59, (1R,2R)-2-(6-(5-(1-(2-morpholinoethyl)-1H-pyrazol-4-yl)pyridin-3-yloxy)benzo[d]thiazol-2-ylamino)cyclohexanol]
inhibition at 1 µM (cKIT): 78% | inhibition at 1 µM [1]: 100% | inhibition at 1 µM (PDGFRb): 16%

O[C@@H]1CCCC[C@H]1Nc1nc2ccc(Oc3cncc(-c4cnc5[nH]ccc5c4)c3)cc2s1 [Compound 61, (1R,2R)-2-(6-(5-(1H-pyrrolo[2,3-b]pyridin-5-yl)pyridin-3-yloxy)benzo[d]thiazol-2-ylamino) cyclohexanol]
inhibition at 1 µM (cKIT): 84% | inhibition at 1 µM [1]: 100% | inhibition at 1 µM (PDGFRb): 8%

CN1CCN(c2ccc(-c3cncc(Oc4ccc5nc(N[C@@H]6CCCC[C@H]6O)sc5c4)c3)cn2)CC1 [Compound 62, (1R,2R)-2-(6-(6′-(4-methylpiperazin-1-yl)-3,3′-bipyridin-5-yloxy)benzo[d]thiazol-2-ylamino) cyclohexanol]
inhibition at 1 µM (cKIT): 77% | inhibition at 1 µM [1]: 100% | inhibition at 1 µM (PDGFRb): 26%

O[C@@H]1CCCC[C@H]1Nc1nc2ccc(Oc3cncc(C4CC4)c3)cc2s1 [Compound 65, (1R,2R)-2-(6-(5-cyclopropylpyridin-3-yloxy)benzo[d]thiazol-2-ylamino) cyclohexanol]
inhibition at 1 µM (cKIT): 73% | inhibition at 1 µM [1]: 100% | inhibition at 1 µM (PDGFRb): 8%

O[C@@H]1CCCC[C@H]1Nc1nc2ccc(Oc3cncc(-c4ccccn4)c3)cc2s1 [Compound 67]
inhibition at 1 µM (cKIT): 94% | inhibition at 1 µM [1]: 100% | inhibition at 1 µM (PDGFRb): 36%

O[C@@H]1CCCC[C@H]1Nc1nc2ccc(Oc3cncc(-c4cscn4)c3)cc2s1 [Compound 69, (1R,2R)-2-(6-(5-(thiazol-4-yl)pyridin-3-yloxy)benzo[d]thiazol-2-ylamino) cyclohexanol]
inhibition at 1 µM (cKIT): 97% | inhibition at 1 µM [1]: 100% | inhibition at 1 µM (PDGFRb): 31%

O=[N+]([O-])c1ccc(Oc2ccc3nc(NCC4CCCCC4)sc3c2)cn1 [Compound 71, N-(cyclohexylmethyl)-6-(6-nitropyridin-3-yloxy)benzo [d]thiazol-2-amine]
inhibition at 1 µM (cKIT): 11% | inhibition at 1 µM [1]: 25% | inhibition at 1 µM (PDGFRb): 1%

O[C@@H]1CCCC[C@H]1Nc1nc2ccc(Oc3cncc(-c4ccc(N5CCOCC5)nc4)c3)cc2s1 [Compound 72, (1R,2R)-2-(6-(6′-morpholino-3,3′-bipyridin-5-yloxy)benzo[d]thiazol-2-ylamino)cyclohexanol]
inhibition at 1 µM (cKIT): 76% | inhibition at 1 µM [1]: 100% | inhibition at 1 µM (PDGFRb): 10%

O[C@@H]1CCCC[C@H]1Nc1nc2ccc(Oc3cncc(-c4ccnc(N5CCOCC5)c4F)c3)cc2s1 [Compound 77]
inhibition at 1 µM (cKIT): 83% | inhibition at 1 µM [1]: 100% | inhibition at 1 µM (PDGFRb): 6%

O[C@@H]1CCCC[C@H]1Nc1nc2ccc(Oc3cncc(-c4ccn[nH]4)c3)cc2s1 [Compound 78, (1R,2R)-2-(6-(5-(1H-pyrazol-5-yl)pyridin-3-yloxy)benzo [d]thiazol-2-ylamino)cyclohexanol]
inhibition at 1 µM (cKIT): 88% | inhibition at 1 µM [1]: 100% | inhibition at 1 µM (PDGFRb): 9%

O[C@@H]1CCCC[C@H]1Nc1nc2ccc(Oc3cncc(-c4cnn(CC(F)F)c4)c3)cc2s1 [Compound 82, (1R,2R)-2-(6-(5-(1-(2,2-difluoroethyl)-1H-pyrazol-4-yl)pyridin-3-yloxy)benzo[d]thiazol-2-ylamino)cyclohexanol]
inhibition at 1 µM (cKIT): 82% | inhibition at 1 µM [1]: 100% | inhibition at 1 µM (PDGFRb): 0%

O[C@@H]1CCCC[C@H]1Nc1nc2ccc(Oc3cncc(-c4ncco4)c3)cc2s1 [Compound 83, (1R,2R)-2-(6-(5-(oxazol-2-yl)pyridin-3-yloxy)benzo[d]thiazol-2-ylamino) cyclohexanol]
inhibition at 1 µM (cKIT): 86% | inhibition at 1 µM [1]: 100% | inhibition at 1 µM (PDGFRb): 98%

N#Cc1ccc(Oc2ccc3nc(NCC4CCCCC4)sc3c2)cn1 [Compound 86, 5-(2-(cyclohexylmethylamino)benzo [d]thiazol-6-yloxy) picolinonitrile]
inhibition at 1 µM (cKIT): 19% | inhibition at 1 µM [1]: 39% | inhibition at 1 µM (PDGFRb): 1%

C[C@H](Nc1nc2ccc(Oc3ccc(C#N)nc3)cc2s1)C1CCCCC1 [Compound 87, (S)-5-(2-(1-cyclohexylethylamino)benzo[d]thiazol-6-yloxy)picolinonitrile]
inhibition at 1 µM (cKIT): 16% | inhibition at 1 µM [1]: 32% | inhibition at 1 µM (PDGFRb): 0%

N#Cc1ccc(Oc2ccc3nc(N[C@@H]4CCCC[C@H]4O)sc3c2)cn1 [Compound 88, 5-(2-((1R,2R)-2-hydroxycyclohexylamino)benzo[d]thiazol-6-yloxy)picolinonitrile]
inhibition at 1 µM (cKIT): 15% | inhibition at 1 µM [1]: 32% | inhibition at 1 µM (PDGFRb): 0%

Nc1ccc(Oc2ccc3nc(NCC4CCCCC4)sc3c2)nn1 [Compound 89, 6-(6-aminopyridazin-3-yloxy)-N-(cyclohexylmethyl)benzo[d]thiazol-2-amine]
inhibition at 1 µM (cKIT): 46% | inhibition at 1 µM [1]: 75% | inhibition at 1 µM (PDGFRb): 9%

Nc1ccc(Oc2ccc3nc(N[C@@H]4CCCC[C@H]4O)sc3c2)nn1 [Compound 90, (1R,2R)-2-(6-(6-aminopyridazin-3-yloxy)benzo[d]thiazol-2-ylamino)cyclohexanol]
inhibition at 1 µM (cKIT): 33% | inhibition at 1 µM [1]: 28% | inhibition at 1 µM (PDGFRb): 87%

Cn1nccc1-c1cncc(Oc2ccc3nc(N[C@@H]4CCCC[C@H]4O)sc3c2)n1 [Compound 91, (1R,2R)-2-(6-(6-(1-methyl-1H-pyrazol-5-yl)pyrazin-2-yloxy)benzo[d]thiazol-2-ylamino) cyclohexanol]
inhibition at 1 µM (cKIT): 21% | inhibition at 1 µM [1]: 95% | inhibition at 1 µM (PDGFRb): 14%

O[C@@H]1CCCC[C@H]1Nc1nc2ccc(Oc3cnc(Cl)c(Br)c3)cc2s1 [Compound 99, (1R,2R)-2-(6-(5-bromo-6-chloropyridin-3-yloxy)benzo[d]thiazol-2-ylamino)cyclohexanol]
inhibition at 1 µM (cKIT): 27% | inhibition at 1 µM [1]: 83% | inhibition at 1 µM (PDGFRb): 21%
